Measured values from ChEMBL document CHEMBL3813628, “Molecular similarity guided optimization of novel Nrf2 activators with 1,2,4-oxadiazole core” (Bioorg Med Chem, 2016).
Activity calls are given as the source filed them. The rule behind the calls is not given here.

Columns and labels:
[1] = molecular target: T1, Nuclear factor erythroid 2-related factor 2 (Homo sapiens) (UniProt Q16236); experiment: Activation of Nrf2 in human HepG2 cells at 40 uM incubated for 12 hrs by ARE-driven luciferase reporter gene assay relative to control; format: cell-based
T1 sequence (whole entry): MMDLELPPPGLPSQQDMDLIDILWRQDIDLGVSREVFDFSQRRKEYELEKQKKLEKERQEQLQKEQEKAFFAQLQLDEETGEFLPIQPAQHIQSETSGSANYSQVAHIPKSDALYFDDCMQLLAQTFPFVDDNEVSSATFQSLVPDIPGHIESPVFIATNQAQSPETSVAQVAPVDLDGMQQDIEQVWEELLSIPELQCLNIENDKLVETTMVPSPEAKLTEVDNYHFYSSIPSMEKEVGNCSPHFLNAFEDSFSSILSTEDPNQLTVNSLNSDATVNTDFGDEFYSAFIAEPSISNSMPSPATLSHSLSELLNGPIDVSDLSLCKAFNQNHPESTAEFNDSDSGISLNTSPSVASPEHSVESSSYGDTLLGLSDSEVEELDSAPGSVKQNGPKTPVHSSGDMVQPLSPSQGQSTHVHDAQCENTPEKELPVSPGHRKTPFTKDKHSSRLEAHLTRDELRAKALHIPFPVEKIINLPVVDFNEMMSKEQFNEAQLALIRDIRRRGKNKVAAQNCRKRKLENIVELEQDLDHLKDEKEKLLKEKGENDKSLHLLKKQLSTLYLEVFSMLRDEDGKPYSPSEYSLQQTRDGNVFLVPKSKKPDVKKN

[2] = molecular target: T1, Nuclear factor erythroid 2-related factor 2 (Homo sapiens); experiment: Activation of Nrf2 in human HepG2 cells at 80 uM incubated for 12 hrs by ARE-driven luciferase reporter gene assay relative to control; format: cell-based
[3] = molecular target: T1, Nuclear factor erythroid 2-related factor 2 (Homo sapiens); experiment: Activation of Nrf2 in human HepG2 cells at 0.2 uM incubated for 12 hrs by ARE-driven luciferase reporter gene assay relative to control; format: cell-based
[4] = molecular target: T1, Nuclear factor erythroid 2-related factor 2 (Homo sapiens); experiment: Activation of Nrf2 in human HepG2 cells at 2 uM incubated for 12 hrs by ARE-driven luciferase reporter gene assay relative to control; format: cell-based
[5] = molecular target: T1, Nuclear factor erythroid 2-related factor 2 (Homo sapiens); experiment: Activation of Nrf2 in human HepG2 cells at 0.02 uM incubated for 12 hrs by ARE-driven luciferase reporter gene assay relative to control; format: cell-based
[6] = molecular target: T1, Nuclear factor erythroid 2-related factor 2 (Homo sapiens); experiment: Activation of Nrf2 in human HepG2 cells at 160 uM incubated for 12 hrs by ARE-driven luciferase reporter gene assay relative to control; format: cell-based
[7] = molecular target: T1, Nuclear factor erythroid 2-related factor 2 (Homo sapiens); experiment: Activation of Nrf2 in human HepG2 cells at 20 uM incubated for 12 hrs by ARE-driven luciferase reporter gene assay relative to control; format: cell-based
[8] = molecular target: T1, Nuclear factor erythroid 2-related factor 2 (Homo sapiens); experiment: Activation of Nrf2 in human HepG2 cells at 5 uM incubated for 12 hrs by ARE-driven luciferase reporter gene assay relative to control; format: cell-based
[9] = molecular target: T2, Nuclear factor erythroid 2-related factor 2 (Rattus norvegicus) (UniProt O54968); experiment: Induction of Nrf2 translocation into nucleus in rat PC12 cells after 12 hrs by DAPI staining-based laser scanning confocal microscopic analysis; format: cell-based; settings: PC-12
T2 sequence (whole entry): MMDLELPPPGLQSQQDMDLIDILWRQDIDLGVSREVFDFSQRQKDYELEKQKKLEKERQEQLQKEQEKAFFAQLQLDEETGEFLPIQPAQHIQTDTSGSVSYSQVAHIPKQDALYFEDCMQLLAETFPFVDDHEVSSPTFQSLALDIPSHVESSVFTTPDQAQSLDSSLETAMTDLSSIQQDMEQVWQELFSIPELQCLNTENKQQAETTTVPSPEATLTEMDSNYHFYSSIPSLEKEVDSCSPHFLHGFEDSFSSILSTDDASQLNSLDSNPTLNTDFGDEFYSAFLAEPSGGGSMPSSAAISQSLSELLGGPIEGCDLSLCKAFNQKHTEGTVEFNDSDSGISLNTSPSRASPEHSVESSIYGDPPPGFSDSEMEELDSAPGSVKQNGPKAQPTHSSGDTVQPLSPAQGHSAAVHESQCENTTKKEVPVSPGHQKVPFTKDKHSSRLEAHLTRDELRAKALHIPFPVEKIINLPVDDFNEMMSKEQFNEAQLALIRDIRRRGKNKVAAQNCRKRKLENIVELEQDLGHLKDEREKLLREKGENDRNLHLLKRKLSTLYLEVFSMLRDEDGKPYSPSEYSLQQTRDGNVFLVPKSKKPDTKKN

[10] = molecular target: T1, Nuclear factor erythroid 2-related factor 2 (Homo sapiens); experiment: Activation of Nrf2 expression in human HCT116 cells after 8 hrs by western blot analysis; format: cell-based; settings: HCT-116
[11] = Cytotoxicity against human L02 cells assessed as cell viability at low to medium concentration after 24 hrs by MTT assay relative to control; format: cell-based; settings: l02, 24 h
[12] = Cytotoxicity against human HCT116 cells assessed as cell viability after 24 hrs by MTT assay; format: cell-based; settings: hct-116, 24 h
[13] = (§1) Cytoprotective activity against H2O2-induced cytotoxicity in human NCM460 cells assessed as cell viability pretreated at 20 uM for 24 hrs followed by H2O2 challenge for 12 hrs by MTT assay (reference value: 50%); format: functional; settings: read-out: Activity
[14] = (§2) Cytoprotective activity against H2O2-induced cytotoxicity in rat PC12 cells assessed as cell viability pretreated at 20 uM for 24 hrs followed by H2O2 challenge for 12 hrs by MTT assay (reference value: 50%); format: functional; settings: PC-12, read-out: Activity
[15] = molecular target: T1, Nuclear factor erythroid 2-related factor 2 (Homo sapiens); experiment: Activation of Nrf2 in human HCT116 cells assessed as upregulation of HO-1 after 8 hrs by western blot analysis; format: cell-based; settings: HCT-116
[16] = Cytotoxicity against rat PC12 cells assessed as cell viability at 160 uM after 24 hrs by MTT assay relative to control; format: cell-based, PC-12; settings: read-out: Activity
[17] = molecular target: T1, Nuclear factor erythroid 2-related factor 2 (Homo sapiens); experiment: Induction of Nrf2 translocation from cytoplasm to nucleus in human HCT116 cells at 20 uM by western blot analysis; format: cell-based; settings: HCT-116, TDE = time-dependent effect
[18] = molecular target: T1, Nuclear factor erythroid 2-related factor 2 (Homo sapiens); experiment: Induction of Nrf2 translocation into nucleus in human NCM460 cells after 12 hrs by DAPI staining-based laser scanning confocal microscopic analysis; format: cell-based
[19] = Cytotoxicity against human NCM460 cells assessed as cell viability at 20 uM after 24 hrs by MTT assay relative to control; format: cell-based; settings: ncm460, 24 h
[20] = molecular target: T1, Nuclear factor erythroid 2-related factor 2 (Homo sapiens); experiment: Activation of Nrf2 in human HCT116 cells assessed as upregulation of gamma-GCS after 8 hrs by western blot analysis; format: cell-based; settings: HCT-116
[21] = molecular target: T1, Nuclear factor erythroid 2-related factor 2 (Homo sapiens); experiment: Activation of Nrf2 in human HCT116 cells assessed as upregulation of NQO1 after 8 hrs by western blot analysis; format: cell-based; settings: HCT-116
[22] = Cytotoxicity against rat PC12 cells assessed as cell viability at 20 uM after 24 hrs by MTT assay relative to control; format: cell-based; settings: pc-12, 24 h
[23] = molecular target: T1, Nuclear factor erythroid 2-related factor 2 (Homo sapiens); experiment: Induction of Nrf2 translocation into nucleus in human L02 cells after 12 hrs by DAPI staining-based laser scanning confocal microscopic analysis; format: cell-based
[24] = Cytotoxicity against human L02 cells assessed as cell viability at 160 uM after 24 hrs by MTT assay relative to control; format: cell-based; settings: read-out: Activity
[25] = Cytotoxicity against human NCM460 cells assessed as cell viability at low to medium concentration after 24 hrs by MTT assay relative to control; format: cell-based; settings: ncm460, 24 h
[26] = molecular target: T1, Nuclear factor erythroid 2-related factor 2 (Homo sapiens); experiment: Activation of Nrf2 in human HepG2 cells incubated for 12 hrs by ARE-driven luciferase reporter gene assay relative to control; format: cell-based
[27] = (§3) Cytoprotective activity against H2O2-induced cytotoxicity in human L02 cells assessed as cell viability pretreated at 20 uM for 24 hrs followed by H2O2 challenge for 12 hrs by MTT assay (reference value: 50%); format: functional; settings: read-out: Activity
[28] = Cytotoxicity against human NCM460 cells assessed as cell viability at 160 uM after 24 hrs by MTT assay relative to control; format: cell-based; settings: read-out: Activity
[29] = Cytotoxicity against human L02 cells assessed as cell viability at 20 uM after 24 hrs by MTT assay relative to control; format: cell-based; settings: l02, 24 h
[30] = Cytotoxicity against rat PC12 cells assessed as cell viability at low to medium concentration after 24 hrs by MTT assay relative to control; format: cell-based; settings: pc-12, 24 h
NCM460 = experiment: as §1; format: functional
PC-12 = experiment: as §2; format: functional
L02 = experiment: as §3; format: functional

Row | Compound | fold change (FC) [1] | fold change (FC) [2] | fold change (FC) [3] | fold change (FC) [4] | fold change (FC) [5] | fold change (FC) [6] | fold change (FC) [7] | fold change (FC) [8] | Activity [11] | Activity [25] | Activity [30] | further results
1 | Cc1nc2cc(-c3noc(-c4cnccn4)n3)ccc2o1 | 15.5 | 17.1 | 4.98 | 4.67 | 3.42 | 15.3 | 9.57 | 6.85 | Non-toxic | Non-toxic | Non-toxic | Activity [9]: Dose-dependent effect; Activity [10]: Dose-dependent effect; Activity [12]: Non-toxic; viability at 20 µM [13]: 90%; viability at 20 µM [14]: 80%; Activity [15]: Dose-dependent effect; viability at 24 h, 160 µM [16]: 80%; Activity [17]: tde; Activity [18]: Dose-dependent effect; Activity [19]: Non-toxic; Activity [20]: Dose-dependent effect; Activity [21]: Dose-dependent effect; Activity [22]: Non-toxic; Activity [23]: Dose-dependent effect; viability at 24 h, 160 µM [24]: 80%; Activity [26]: Dose-dependent effect; viability at 20 µM [27]: 85%; viability at 24 h, 160 µM [28]: 80%; Activity [29]: Non-toxic
2 | CC(C)(C)c1cc(O)ccc1O [E319] | 2.14 | 5.2 | 1.25 | 1.24 | 1.18 | 8.46 |  |  | Non-toxic | Non-toxic | Non-toxic | Activity (NCM460): Active; Activity (PC-12): Active; Activity (L02): Active
3 | CCOc1ccc(-c2nc(-c3ccc(-c4csc(C)n4)cc3)no2)c(CC)c1 |  |  |  |  |  |  | 3.08 | 1.09 |  |  |  | 
4 | CN(C)C=O [DIMETHYLFORMAMIDE] | 2.97 |  | 1 | 1.1 | 0.82 |  | 1.65 |  | Non-toxic | Non-toxic | Non-toxic | Activity (NCM460): Active; Activity (PC-12): Active; Activity (L02): Active
5 | COc1ccc(Cl)cc1-c1nc(-c2ccc3oc(C)nc3c2)no1 |  |  |  |  |  |  | 3.72 | 3.62 |  |  |  | 

Further lines, with some results ahead:

Row | fold change (FC) [1] | fold change (FC) [2] | fold change (FC) [3] | fold change (FC) [4] | fold change (FC) [5] | fold change (FC) [6] | fold change (FC) [7] | fold change (FC) [8] | Compound | Activity [11] | Activity [25] | Activity [30] | further results
6 | 5.43 | 8.23 | 4.42 | 3.21 | 1.81 | 17.7 | 6.96 | 4.55 | c1ccc(-c2nc3cc(-c4noc(-c5ccc6[nH]cnc6c5)n4)ccc3o2)cc1 |  |  |  | 
7 |  |  |  |  |  |  | 2.6 | 4.76 | Cc1nc2cc(-c3noc(-c4cccc(C#N)c4)n3)ccc2o1 |  |  |  | 
8 | 6.38 | 9.84 | 3.41 | 4.64 | 3.08 | 10.5 | 6.64 | 4.64 | Clc1cc(-c2nc(-c3ccc4oc(-c5ccccc5)nc4c3)no2)ccn1 |  |  |  | 
9 | 12.4 | 12.1 | 1.5 | 3.35 | 1.09 | 8.73 | 5.47 | 4.1 | Cn1cnc2ccc(-c3noc(-c4ccc5cc[nH]c5c4)n3)cc21 |  |  |  | 
10 |  |  |  |  |  |  | 3.38 | 1.31 | CCOc1ccc(-c2nc(-c3ccc4[nH]c(=O)n(C5CCCC5)c4c3)no2)cc1OCC |  |  |  | 
